# Data reported in patent publication US7902227B2, “C-7 isoxazolinyl quinolone / naphthyridine derivatives useful as antibacterial agents” (Janssen Pharmaceutica NV., priority 2008, dated 2011).
# Assays:
# Assay type in all cases: cell-based
# [1] = test system: Staphylococcus aureus OC4172; experiment: In vitro antibacterial activity (MIC), microdilution broth method (NCCLS), strain A; settings: cation adjusted Mueller-Hinton broth, 35° C., 16-20 hours
# Experimental: (§1) Minimal inhibitory concentration (MIC) has been an indicator of in vitro antibacterial activity widely used in the art. The in vitro antimicrobial activity of representative compounds of the present invention was determined by the microdilution broth method following the test method from the National Committee for Clinical Laboratory Standards (NCCLS). This method is described in the NCCLS Document M7-A4, Vol. 17, No. 2, “Methods for Dilution Antimicrobial Susceptibility Test for Bacteria that Grow Aerobically—Fourth Edition”, which is incorporated herein by reference.
# (§2) In this method two-fold serial dilutions of drug in cation adjusted Mueller-Hinton broth are added to wells in microdilution trays. The test organisms are prepared by adjusting the turbidity of actively growing broth cultures so that the final concentration of test organism after it is added to the wells is approximately 5×10^4 CFU/well.
# (§3) Following inoculation of the microdilution trays, the trays are incubated at 35° C. for 16-20 hours and then read. […] The amount of growth in the wells containing the test compound is compared with the amount of growth in the growth-control wells (no test compound) used in each tray. As set forth in Table 4, representative compounds of the present invention were tested against a variety of pathogenic bacteria resulting in a range of activities depending on the organism tested.
# [2] = test system: strain C, fluoroquinolone-resistant clinical isolate of Streptococcus pneumoniae; experiment: In vitro antibacterial activity (MIC), microdilution broth method (NCCLS), strain C; settings: read-out: In vitro Antibacterial Activity MIC, C
# Experimental: as §1, §2, §3
# [3] = test system: strain B, fluoroquinolone-resistant clinical isolate of Streptococcus pneumoniae; experiment: In vitro antibacterial activity (MIC), microdilution broth method (NCCLS), strain B; settings: read-out: In vitro Antibacterial Activity MIC, B
# Experimental: as §1, §2, §3
# [4] = test system: Streptococcus pneumoniae ATCC 49619; experiment: In vitro antibacterial activity (MIC), microdilution broth method (NCCLS), strain E; settings: ATCC49619, 35° C., 16-20 hours
# Experimental: as §1, §2, §3
# [5] = test system: strain D, fluoroquinolone-resistant clinical isolate of Streptococcus pneumoniae; experiment: In vitro antibacterial activity (MIC), microdilution broth method (NCCLS), strain D; settings: read-out: In vitro Antibacterial Activity MIC, D
# Experimental: as §1, §2, §3
Structure (SMILES),MIC [1] [µg/mL],MIC [2] [µg/mL],MIC [3] [µg/mL],MIC [4] [µg/mL],MIC [5] [µg/mL]
"O=C(O)c1cn(-c2ccc(F)cc2F)c2nc(N3CC4ON=C(c5ccc(Cl)cc5)C4C3)c(F)cc2c1=O (centres unmarked) [ID No. 101, 7-[3-(4-Chloro-phenyl)-3a,4,6,6a-tetrahydro-pyrrolo[3,4-d]isoxazol-5-yl]-1-(2,4-difluoro-phenyl)-6-fluoro-4-oxo-1,4-dihydro-[1,8]naphthyridine-3-carboxylic acid]",0.06,2,1,1,4
"O=C(O)c1cn(C2CC2)c2nc(N3CC4ON=C(CO)C4C3)c(F)cc2c1=O (centres unmarked) [ID No. 117, 1-Cyclopropyl-6-fluoro-7-(3-hydroxymethyl-3a,4,6,6a-tetrahydro-pyrrolo[3,4-d]isoxazol-5-yl)-4-oxo-1,4-dihydro-[1,8]naphthyridine-3-carboxylic acid]",0.5,16,16,8,16
"COc1c(N2C[C@@H]3ON=C(c4ccc(C(F)(F)F)nc4)[C@@H]3C2)c(F)cc2c(=O)c(C(=O)O)cn(C3CC3)c12 (relative stereo) [ID No. 121, 7-[cis-3-(6-Trifluoromethyl-3-pyridyl)-3a,4,6,6a-tetrahydropyrrolo[3,4-d]isoxazol-5-yl]-1-cyclopropyl-8-methoxy-6-fluoro-4-oxo-1,4-dihydroquinoline-3-carboxylic acid]",0.25,> 16,0.16,4,8
"O=C(O)c1cn(C2CC2)c2nc(N3CC4ON=C(c5ccc(C(F)(F)F)nc5)C4C3)c(F)cc2c1=O (centres unmarked) [ID No. 112, 1-Cyclopropyl-6-fluoro-4-oxo-7-[3-(6-trifluoromethyl-pyridin-3-yl)-3a,4,6,6a-tetrahydro-pyrrolo[3,4-d]isoxazol-5-yl]-1,4-dihydro-[1,8]naphthyridine-3-carboxylic acid]",0.25,> 16,16,2,8
"NCC1=NOC2CN(c3nc4c(cc3F)c(=O)c(C(=O)O)cn4C3CC3)CC12 (centres unmarked) [ID No. 201, 7-(3-Aminomethyl-3a,4,6,6a-tetrahydro-pyrrolo[3,4-d]isoxazol-5-yl)-1-cyclopropyl-6-fluoro-4-oxo-1,4-dihydro-[1,8]naphthyridine-3-carboxylic acid]",0.5,> 16,> 16,4,> 16
"COc1ccc(C2=NOC3CN(c4cc5c(cc4F)c(=O)c(C(=O)O)cn5C4CC4)CC23)cn1 (centres unmarked) [ID No. 134, 1-Cyclopropyl-6-fluoro-7-[3-(6-methoxy-pyridin-3-yl)-3a,4,6,6a-tetrahydro-pyrrolo[3,4-d]isoxazol-5-yl]-4-oxo-1,4-dihydro-quinoline-3-carboxylic acid]",0.12,> 16,16,2,8
"O=C(O)c1cn(-c2ccc(F)cc2F)c2nc(N3CC4ON=C(c5cccnc5)C4C3)c(F)cc2c1=O (centres unmarked) [ID No. 105, 1-(2,4-Difluoro-phenyl)-6-fluoro-4-oxo-7-(3-pyridin-3-yl-3a,4,6,6a-tetrahydro-pyrrolo[3,4-d]isoxazol-5-yl)-1,4-dihydro-[1,8]naphthyridine-3-carboxylic acid]",0.06,2,0.5,1,2
"O=C(O)c1cn(C2CC2)c2cc(N3CC4ON=C(c5ccccn5)C4C3)c(F)cc2c1=O (centres unmarked) [ID No. 135, 1-Cyclopropyl-6-fluoro-7-[3-(pyridin-2-yl)-3a,4,6,6a-tetrahydro-pyrrolo[3,4-d]isoxazol-5-yl]-4-oxo-1,4-dihydro-quinoline-3-carboxylic acid]",0.03,2,8,1,4
"CCOC(=O)C1=NOC2CN(c3c(F)cc4c(=O)c(C(=O)O)cn5c4c3OC[C@@H]5C)CC12 (stereo partly drawn) [ID No. 131, 7-[cis-3-(ethoxycarbonyl)-3a,4,6,6a-tetrahydropyrrolo[3,4-d]isoxazol-5-yl]S-(−)-9,10-difluoro-2,3-dihydro-3-methyl-7-oxo-7H-pyrido-[1,2,3-de][1,4]-benzoxazine-6-carboxylic acid]",1,> 16,> 16,16,> 16
"COc1ccc(C2=NOC3CN(c4nc5c(cc4F)c(=O)c(C(=O)O)cn5C4CC4)CC23)cn1 (centres unmarked) [ID No. 111, 1-Cyclopropyl-6-fluoro-7-[3-(6-methoxypyridin-3-yl)-3a,4,6,6a-tetrahydro-pyrrolo[3,4-d]isoxazol-5-yl]-4-oxo-1,4-dihydro-[1,8]naphthyridine-3-carboxylic acid]",0.03,4,8,0.5,2
"CCOC(=O)C1=NOC2CN(c3nc4c(cc3F)c(=O)c(C(=O)O)cn4-c3ccc(F)cc3F)CC12 (centres unmarked) [ID No. 106, 1-(2,4-Difluoro-phenyl)-7-(3-ethoxycarbonyl-3a,4,6,6a-tetrahydro-pyrrolo[3,4-d]isoxazol-5-yl)-6-fluoro-4-oxo-1,4-dihydro-[1,8]naphthyridine-3-carboxylic acid]",0.12,> 16,> 16,8,> 16
"CCOC(=O)C1=NOC2CN(c3c(F)cc4c(=O)c(C(=O)O)cn(C5CC5)c4c3OC)CC12 (stereo not drawn) [ID No. 124, 7-[cis-3-(3-Ethoxycarbonyl)-3a,4,6,6a-tetrahydropyrrolo[3,4-d]isoxazol-5-yl]-1-cyclopropyl-8-methoxy-6-fluoro-4-oxo-1,4-dihydroquinoline-3-carboxylic acid]",0.25,> 16,> 16,8,> 16
"O=C(O)c1cn(-c2ccc(F)cc2F)c2nc(N3CC4ON=C(c5ccc(C(F)(F)F)nc5)C4C3)c(F)cc2c1=O (centres unmarked) [ID No. 103, 1-(2,4-Difluoro-phenyl)-6-fluoro-4-oxo-7-[3-(6-trifluoromethyl-pyridin-3-yl)-3a,4,6,6a-tetrahydro-pyrrolo[3,4-d]isoxazol-5-yl]-1,4-dihydro-[1,8]naphthyridine-3-carboxylic acid]",0.25,> 16,8,2,4
"CCOC(=O)C1=NOC2CN(c3nc4c(cc3F)c(=O)c(C(=O)O)cn4C3CC3)CC12 (centres unmarked) [ID No. 116, 1-Cyclopropyl-7-(3-ethoxycarbonyl-3a,4,6,6a-tetrahydro-pyrrolo[3,4-d]isoxazol-5-yl)-6-fluoro-4-oxo-1,4-dihydro-[1,8]naphthyridine-3-carboxylic acid]",0.12,> 16,> 16,4,> 16
"O=C(O)c1cn(C2CC2)c2cc(N3CC4ON=C(c5cccnc5)C4C3)c(F)cc2c1=O (centres unmarked) [ID No. 136, 1-Cyclopropyl-6-fluoro-7-[3-(pyridin-3-yl)-3a,4,6,6a-tetrahydro-pyrrolo[3,4-d]isoxazol-5-yl]-4-oxo-1,4-dihydro-quinoline-3-carboxylic acid]",0.06,4,8,1,8
"COc1c(N2C[C@@H]3ON=C(c4ccccn4)[C@@H]3C2)ccc2c(=O)c(C(=O)O)cn(C3CC3)c12 (relative stereo) [ID No. 150, 7-[cis-3-(2-pyridyl)-3a,4,6,6a-tetrahydropyrrolo[3,4-d]isoxazol-5-yl]-1-cyclopropyl-8-methoxy-4-oxo-1,4-dihydroquinoline-3-carboxylic acid]",0.06,8,> 16,1,8
